Results from PMC6152234, “Specialized Metabolites of the Lichen Vulpicida pinastri Act as Photoprotective Agents” (Molecules : A Journal of Synthetic Chemistry and Natural …, 2017).
In brackets after ≈: the same amount, converted by molar mass. Like-named read-outs stand apart in the source and are kept apart here. Marks after values point to notes of the source that are not given here.

How the values were obtained:
[1] = cited from earlier work; for SPF: commercial organic UV-filters, lower limit for commercial sunscreen 6
[2] = DPPH assay (reducing activity); type: biochemical
Description: Reducing activity of compounds 1–3 and crude extract on the 1,1′-diphenyl-2-picrylhydrazyl free radical (DPPH) and scavenging activity on superoxide anion were measured as previously described. Briefly, the scavenging activity of the lichen compounds on DPPH was measured using the Matsukawa method with some modifications. A reaction mixture containing 100 µL of DPPH (0.5 mM) in methanol and 10 µL of the lichen compound solutions in DMSO to give final concentrations of 19, 56, 167 and 500 µg/mL per well, was distributed in each microplate well. To allow results comparison and due to the presence of extract, concentrations are expressed in µg/mL. The absorbances were recorded at 540 nm after 30 min.
(§1) For both assays, each concentration and all tests were done in triplicate and the results averaged. Ascorbic acid was used as a positive control. The percentage inhibition at steady state for each dilution was used to calculate the IC50 values. This gave the amount of antioxidant required (measured as the concentration of the stock solution added to the reaction mixture) to either scavenge 50% of O2^− or 50% of DPPH radicals: the lower the values, the higher the scavenging activity towards O2^−.

[3] = NBT assay (superoxide anion scavenging, non-enzymatic NADH/PMS); type: biochemical
Description: Measurements of superoxide anion scavenging activity in 96-well microplates was based on the non-enzymatic method previously described with some modifications. The reaction mixture in the sample wells consisted of NADH (78 µM), nitro-blue tetrazolium (NBT) (50 µM), phenazine methosulfate (PMS) (10 µM), and lichen compounds (10, 20, 40, 80 µg/mL). The reagents were dissolved in 16 mM tris-hydrochloride buffer, at pH = 8 except for all the lichen compounds/extract which were dissolved in DMSO. After 5 min of incubation at room temperature, the spectrophotometric measurement was performed at 560 nm against blanks (without PMS nor sample).
as §1

HaCaT cells [4] = test: Cytotoxic and photocytotoxic activities before and after UVA irradiation; type: cell-based, human; conditions: for IC50: Homo sapiens, light or radiation study; for Photo-Irritancy Factor (PIF), formal PIF: formal PIF = *1.0 = Cmax(−UV)/Cmax(+UV)
Description: Briefly, 100 µL per well of a cell suspension of HaCaT cells (ATCC) at 120,000 cells/mL were maintained in a RPMI culture medium with 5% of calf serum at 37 °C under 5% CO2 for 24 h for formation of monolayers. At t = 24 h, two 96-well plates per test chemical were preincubated for 1 h with seven different concentrations of the tested compounds and extract (ranging from 1 µg/mL to 200 µg/mL). Chlorpromazine was used as the positive control. To allow results comparison and due to the presence of extract, concentrations are expressed in µg/mL.
For both assays, each concentration and all tests were done in triplicate and the results averaged. The percentage inhibition at steady state for each dilution was used to calculate the IC50 values.

[5] = In vitro screening method for sun protection indexes (SPF, PF-UVA, λc, ISP, SUI) from UV absorbance 290–400 nm; type: physicochemical
Description: Photoprotective effectiveness is evaluated through photoprotective indexes such as SPF, PF-UVA, and critical wavelength (λc) (an indicator of the filter capacity to protect in the UVA range), as well as Spectral Uniformity Index (SUI) and Ideal Spectral Profile (ISP), two indexes recently defined by Diffey to focus on protection across the entire ultraviolet spectrum. They calculate the goodness of fit of the spectral profile to the ideal flat profile. SPF and PF-UVA measure the filter efficacy against UVB or UVA. SPF measurement is currently determined in vivo through determination of the erythemal reaction on human volunteers. For economical and ethical reasons, many alternative in vitro methods have been developed to measure SPF and also PF-UVA, λc or SUI and ISP. Unfortunately, despite concerted efforts around the globe between different commissions, none of them guarantees a good correlation with in vivo measurements. Moreover, all these in vitro methods require an amount of active raw material generally ≥100 mg and prevent the evaluation of compounds in minute amounts. The photoprotective indexes have been then determined thanks to a new method (see SM) especially developed to cope with the low availability of the compounds. Twelve commercial organic UV-filters, the photoprotective indexes of which were published (Table S3 in SM), encompassing a 1–24 SPF range were used for the development. It can be noted that the SPF values of benzophenone-3 (oxybenzone), PEG-25 PABA, homosalate, polysilicone 15 and 4-Methylbenzylidene Camphor are under 6, the value commonly accepted as the lower limit for commercial sunscreen. However, the efficient value of commercialized emulsion can be explained by the formulation of several organic and mineral filters. The similarity of the results (r^2 = 0.98 for published SPF vs. herein SPF, see Figure S1 in SM) supported the new method validity. Routinely, ethylhexyl methoxycinnamate (OMC) was used as positive control. Based on the SPF, λc, PF-UVA, SUI and ISP values obtained with marketed organic filters and on their UV range protection (Table S3 in SM), a decision tree was built to categorize the filters (Figure 3). Considering the herein SPF values of the filters cited above (around 2), the first condition to select a candidate is SPF > 2. Restricted UVA or UVB filters can be discriminated through the λc value (>370 nm) and PF-UVA (>2) for UVA and SUI (>1.2) and ISP (<90) for UVB. A large spectral protection (UVA + UVB) could be evaluated by combining the four criteria.
A new in vitro screening method based on spectrophotometric data was used to evaluate sun protection indexes such as SPF, PF-UVA, the critical wavelength λc, ISP and SUI. Its development was first conducted in a cuvette using twelve commercial organic filters encompassing a large range of SPF values (1 < SPF < 25) and then transposed in a 96-wells plate. Following the International recommendations, maximal concentrations never overtook 10% whatever the commercial filters or the lichens extracts or compounds considered. This new method faces some product availability limitation, which is a common shortcoming for natural products or metabolites (see all development in SM).
The scheme of solution preparation to record the experimental values is depicted in Figure 9. The sample (S4) was prepared at 0.02 mg/mL from stock solutions of filter candidate (S2) and of emulsion (S1) (See emulsion preparation in SM) taking into account the maximal concentration. The experimental absorbances Aλ were recorded in the 290–400 nm range versus a blank solution (S3) in a cuvette with a double beam spectrophotometer or in a 96-wells plate filled with 180 µL of solution by well. […] The diagram is described for final volumes of 50 mL, 100 µL, 25 mL and 25 mL for S1, S2, S3 and S4 solutions, respectively. Smaller volumes can easily be prepared. Solutions S2 and S4 were prepared in duplicate. […]

[6] = Stability of photoprotection indexes after UVA or UVB irradiation; type: physicochemical; conditions: for photostability: UVA and UVB
Description: One hundred eighty microliters of solution in 96-well plates were irradiated by UVA (2 J/cm^2) or UVB ([…]). The absorbances were then recorded and photoprotective indexes were calculated as described above. The stability was evaluated by comparison between indexes described previously (Section 3.5.1) and obtained before and after irradiation. Two independently prepared solutions were studied and OMC was used as a positive control.

[7] = NBT antioxidant assay of compounds in combination (isobologram, combination index); type: biochemical
Description: For each drug ratio (Tables S5 and S6 in SM), the antioxidant inhibition was evaluated as previously described (2.6.1).
The antagonistic, synergistic or additive effect of the combination depends on the combination index value (CI) (Equation (1)). […] (IC50)X is the value of the IC50 of compound X alone.
For both assays, each concentration and all tests were done in triplicate and the results averaged.

HaCaT cells [8] = conditions: human
Description: For each drug ratio (Tables S7 and S8 in SM), the cytotoxicity was evaluated as previously described (2.7.1).
For both assays, each concentration was done in triplicate and the results averaged.

[9] = design: method as in earlier work; conditions: ref 37 (Rancan); cited from earlier work
[10] = HaCaT cells, with UVA irradiation, read-out: IC50 ± SD With Irradiation
[11] = HaCaT cells, without irradiation, read-out: IC50 ± SD Without Irradiation
[12] = before irradiation, new in vitro method

Cc1ccc(/C=C2/C(=O)C3(C)CCC2C3(C)C)cc1 (stereo not drawn) [4-Methylbenzylidene Camphor]
SPF [1]: under 6

O=C1O[C@H]([C@@H](O)CO)C(O)=C1O [Ascorbic acid, reference compound]
DPPH Assay IC50 ± SD [2]: 12.5 ± 0.5 µg/mL
NBT Assay IC50 ± SD [3]: 3.0 ± 0.4 µg/mL

CN(C)CCCN1c2ccccc2Sc2ccc(Cl)cc21 [Chlorpromazine, reference compound]
IC50 (HaCaT cells [4]; [10]): 2.4 ± 0.3 µg/mL (≈ 7.53 µM)
IC50 (HaCaT cells [4]; [11]): 13.2 ± 1.7 µg/mL (≈ 41.4 µM)
Photo-Irritancy Factor (PIF) (HaCaT cells [4]; PIF = IC50(−UV)/IC50(+UV), PIF < 5 no phototoxic potential): 5.5 ^d

CCCCC(CC)COC(=O)C=Cc1ccc(OC)cc1 (stereo not drawn) [OMC, ethylhexyl methoxycinnamate, reference compound]
ISP (Ideal Spectral Profile) ([5]; before irradiation): 105%
PF-UVA ([5]; before irradiation): 1.6
SUI (Spectral Uniformity Index) ([5]; before irradiation): 1.1
critical wavelength (λc) ([5]; before irradiation): 330 nm
SPF [5, 12]: 10.4
SPF ([5]; cuvette, dissolved in DMSO): 10.1
SPF ([5]; cuvette, dissolved in THF): 9.6
decrease in indexes after irradiation ([6]; UVA or UVB irradiation): 25%

COC(=O)/C(=C1/OC(=O)C(c2ccc(OC)cc2)=C1O)c1ccccc1 [Pinastric acid, pinastric acid]
DPPH Assay IC50 ± SD [2]: 80.0 ± 8.0 µg/mL
Superoxide anion scavenging activity (% inhibition) ([7]; Table S7, pinastric acid alone 17.5 µg/mL): 25.0%
Superoxide anion scavenging activity (% inhibition) ([7]; Table S7, pinastric acid alone 35.0 µg/mL): 37.0%
Superoxide anion scavenging activity (% inhibition) ([7]; Table S7, pinastric acid alone 52.5 µg/mL): 44.0%
Superoxide anion scavenging activity (% inhibition) ([7]; Table S7, pinastric acid alone 70.0 µg/mL): 50.0%
ISP (Ideal Spectral Profile) ([5]; before irradiation): 61%
PF-UVA ([5]; before irradiation): 1.8
SUI (Spectral Uniformity Index) ([5]; before irradiation): 1.9
critical wavelength (λc) ([5]; before irradiation): 386 nm
SPF [5, 12]: 4.1
IC50 (HaCaT cells [4]; [10]): > 200 µg/mL
IC50 (HaCaT cells [4]; [11]): > 200 µg/mL
Photo-Irritancy Factor (PIF), formal PIF (HaCaT cells [4]): *1.0 ^c
NBT Assay IC50 ± SD [3]: 70.0 ± 23.0 µg/mL
photostability [6]: photostable in the UVA and UVB ranges

COC(=O)/C(=C1/OC(=O)C(c2ccccc2)=C1O)c1ccccc1 [Vulpinic acid, vulpinic acid]
DPPH Assay IC50 ± SD [2]: 55.0 ± 8.0 µg/mL
Superoxide anion scavenging activity (% inhibition) ([7]; Table S6, vulpinic acid alone 7.5 µg/mL): 22.0%
Superoxide anion scavenging activity (% inhibition) ([7]; Table S6, vulpinic acid alone 15.0 µg/mL): 30.0%
Superoxide anion scavenging activity (% inhibition) ([7]; Table S6, vulpinic acid alone 22.5 µg/mL): 42.0%
Superoxide anion scavenging activity (% inhibition) ([7]; Table S6, vulpinic acid alone 30.0 µg/mL): 50.0%
ISP (Ideal Spectral Profile) ([5]; before irradiation): 19%
PF-UVA ([5]; before irradiation): 3.9
SUI (Spectral Uniformity Index) ([5]; before irradiation): 7.6
IC50 (HaCaT cells [4]; [10]): > 200 µg/mL
IC50 (HaCaT cells [4]; [11]): > 200 µg/mL
Photo-Irritancy Factor (PIF), formal PIF (HaCaT cells [4]): *1.0 ^c
NBT Assay IC50 ± SD [3]: 30.0 ± 3.0 µg/mL
Percentage of cytotoxicity (HaCaT cells [8]; 5 µg/mL): 0.0%
Percentage of cytotoxicity (HaCaT cells [8]; 20 µg/mL): 0.0%
photostability [6]: photostable in the UVA and UVB ranges

CCCCC(CC)COc1ccc(-c2nc(-c3ccc(OC)cc3)nc(-c3ccc(OCC(CC)CCCC)cc3O)n2)c(O)c1 (stereo not drawn) [anisotriazine, Bis-Ethylhexyloxyphenol Methoxytphenyl Triazine, reference compound]
published SPF ([1]; reference value, ref 6–8 of supplement): 23.9
SPF ([5]; cuvette, dissolved in DMSO): 1.8

COc1ccc(C(=O)c2ccccc2)c(O)c1 [benzophenone-3 (oxybenzone), benzophenone-3]
SPF [1]: under 6

CC1CC(OC(=O)c2ccccc2O)CC(C)(C)C1 (stereo not drawn) [homosalate]
SPF [1]: under 6

PEG-25 PABA
SPF [1]: under 6

usnic acid
DPPH Assay IC50 ± SD [2]: >500.0 µg/mL
in vivo SPF [9]: 4.1
Superoxide anion scavenging activity (% inhibition) ([7]; Table S6, usnic acid alone 6.0 µg/mL): 32.0%
Superoxide anion scavenging activity (% inhibition) ([7]; Table S6, usnic acid alone 12.0 µg/mL): 40.0%
Superoxide anion scavenging activity (% inhibition) ([7]; Table S6, usnic acid alone 18.0 µg/mL): 46.0%
Superoxide anion scavenging activity (% inhibition) ([7]; Table S6, usnic acid alone 24.0 µg/mL): 50.0%
Superoxide anion scavenging activity (% inhibition) ([7]; Table S7, usnic acid alone 6.0 µg/mL): 32.0%
Superoxide anion scavenging activity (% inhibition) ([7]; Table S7, usnic acid alone 12.0 µg/mL): 40.0%
Superoxide anion scavenging activity (% inhibition) ([7]; Table S7, usnic acid alone 18.0 µg/mL): 46.0%
Superoxide anion scavenging activity (% inhibition) ([7]; Table S7, usnic acid alone 24.0 µg/mL): 50.0%
ISP (Ideal Spectral Profile) ([5]; before irradiation): 53%
PF-UVA ([5]; before irradiation): 1.8
critical wavelength (λc) ([5]; before irradiation): 364 nm
SPF [5, 12]: 3.9
IC50 ± SD With Irradiation (HaCaT cells [4]; HaCaT cells, with UVA irradiation): 47.0 ± 10.0 µg/mL
IC50 ± SD Without Irradiation (HaCaT cells [4]; HaCaT cells, without irradiation): 33.0 ± 2.0 µg/mL
phototoxic potential (HaCaT cells [4]; from PIF, human keratinocyte cell line, UVA): no phototoxic potential
NBT Assay IC50 ± SD [3]: 24.0 ± 9 µg/mL
variation in the SPF values after UVA irradiation ([6]; UVA 2 J/cm^2): +17%
photostability [6]: photostable in the UVA and UVB ranges
